# Paper PMC12126525, “Mechanism of ATP hydrolysis in the Hsp70 BiP nucleotide-binding domain” (Nature Communications, 2025)
# Target: BiP NBD (Homo sapiens, UniProt P11021)
# Experiment: Global kinetic fit (MCMC) of four NMR data sets (E1+E2, E1 only, E2 only, no recycling): functional cycle kinetic parameters
# Format: biochemical
# Design: His6 (N, cleaved yes); made in house; host or cells: E. coli BL21-(DE3)-Lemo, pET28a vector
# Source text: It comprises 5 different states that are connected by […] reaction equations of first and second order. We consider ATP hydrolysis an irreversible reaction without backreaction. The other pathways are reversible dissociation/association reactions, arbitrarily labeled 1–5. The microscopic equations (elementary reactions) for these 11 reactions are given by:1 NBD^ATPkcat→NBD^ADP⋅Pi 2 NBD^ATPkoff1⇌kon1NBD^apo+ATP 3 NBD^ADPkoff2⇌kon2NBD^apo+ADP 4 NBD^Pikoff3⇌kon3NBD^apo+Pi 5 NBD^ADP⋅Pikoff4⇌kon4NBD^ADP+Pi 6 NBD^ADP⋅Pikoff5⇌kon5NBD^Pi+ADP With the forward and backward kinetic rate constants connected by thermodynamic equilibrium dissociation constants given by7 koffi/koni=KDifori=1,…,5 For each of the 5 states, a differential equation describing the conservation of mass can be derived:8 d/dtNBD^apo=+koff1NBD^ATP+koff2NBD^ADP+koff3NBD^Pi−kon1NBD^apoATP−kon2NBD^apoADP−kon3NBD^apoPi 9 d/dt[NBD^ATP]=+kon1NBD^apoATP−koff1NBD^ATP−kcatNBD^ATP 10 d/dtNBD^ADP⋅Pi=+kcatNBD^ATP+kon4NBD^ADPPi+kon5NBD^PiADP−koff4NBD^ADP⋅Pi−koff5NBD^ADP⋅Pi 11 d/dtNBD^ADP=+koff4NBD^ADP⋅Pi+kon2NBD^apoADP−koff2NBD^ADP−kon4NBD^ADPPi 12 d/dtNBD^Pi=+koff5NBD^ADP⋅Pi+kon3NBD^apoPi−koff3NBD^Pi−kon5NBD^PiADP Furthermore, we have the total amount13 NBD^apo+NBD^ATP+NBD^ADP+NBD^ADP⋅Pi+NBD^Pi=NBD0 These equations can be used for numerical fitting of steady-state and non-steady-state experimental data.
# The experimental data of the BiP NBD in-cyclo experiments were fitted using standard reaction kinetics. Free variables were the kon and koff rates for the five reversible reaction and the catalytic rate constant (kcat) for the irreversible ATP hydrolysis step (See theory section). The initial values for kcat , koff2 , koff4 and koff5 were set to the value determined experimentally with in-cyclo experiment. The initial value for koff3 was taken from the EXSY experiment and the initial range for koff1 and KD1 were taken from the literature. […] The prior distributions were defined based on the average state occupancy resolved from the in-cyclo experiment: tNBD·ADP, tNBD, tNBD·ADP·Pi and tNBD·Pi. Numerical integration of the corresponding differential equations for the reaction scheme (described in Fig. 2a) was performed using a custom Python module (Kinetic).
# To fully determine all kinetic parameters, the data fitting procedure was conducted as a global fit of four independent experimental datasets: (i) the in-cyclo experiment with ATP regeneration and phosphate removal, (ii) ATP regeneration only, (iii) single batch experiments starting from pure ATP with the phosphate removal system, and (iv) single batch experiments starting from pure ATP.
# Fitting of the functional cycle kinetic parameters. a-d, Global fit of the experimental data presented in the manuscript E1 +E2 (a), E1 (b), E2 (c), no recycling system (d). Data points are shown as circles NBD·ADP (blue), NBD·ADP·PI (dark blue) and NBD·ATP (red) (left) and pyruvate (grey), glucose-1-P (lavender), ATP (red) and ADP (blue) (right). The fit of the data is shown as lines in the same color as the data points. Data points and standard deviation for three independent experiments. e, Numerical stability of the global fitting of the experimental data.
# [1] = Supplementary Fig 10a, time 5 min
# [2] = Supplementary Fig 10a, time 11 min
# [3] = Supplementary Fig 10a, time 17 min
# [4] = Supplementary Fig 10a, time 23 min
# [5] = Supplementary Fig 10a, time 29 min
# [6] = Supplementary Fig 10a, time 35 min
# [7] = Supplementary Fig 10a, time 41 min
# [8] = Supplementary Fig 10a, time 47 min
# [9] = Supplementary Fig 10a, time 53 min
# [10] = Supplementary Fig 10a, time 59 min
# [11] = Supplementary Fig 10a, time 65 min
# [12] = Supplementary Fig 10a, time 71 min
# [13] = Supplementary Fig 10b, time 10 min
# [14] = Supplementary Fig 10b, time 16 min
# [15] = Supplementary Fig 10b, time 22 min
# [16] = Supplementary Fig 10b, time 28 min
# [17] = Supplementary Fig 10b, time 34 min
# [18] = Supplementary Fig 10b, time 40 min
# [19] = Supplementary Fig 10b, time 46 min
# [20] = Supplementary Fig 10b, time 52 min
# [21] = Supplementary Fig 10b, time 58 min
# [22] = Supplementary Fig 10b, time 64 min
# [23] = Supplementary Fig 10b, time 70 min
# BiP NBD, sequence (P11021 19-406): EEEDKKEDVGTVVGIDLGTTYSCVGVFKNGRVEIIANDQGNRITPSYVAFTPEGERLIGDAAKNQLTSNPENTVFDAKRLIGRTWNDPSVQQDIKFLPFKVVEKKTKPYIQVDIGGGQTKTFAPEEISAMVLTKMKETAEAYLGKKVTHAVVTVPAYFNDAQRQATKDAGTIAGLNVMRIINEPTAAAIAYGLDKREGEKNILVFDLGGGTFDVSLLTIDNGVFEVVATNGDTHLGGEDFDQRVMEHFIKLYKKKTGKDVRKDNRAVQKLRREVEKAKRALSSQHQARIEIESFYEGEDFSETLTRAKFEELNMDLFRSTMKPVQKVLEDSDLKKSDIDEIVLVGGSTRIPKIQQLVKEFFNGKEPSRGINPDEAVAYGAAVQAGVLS
species [1],species [2],species [3],species [4],species [5],species [6],species [7],species [8],species [9],species [10],species [11],species [12],species [13],species [14],species [15],species [16],species [17],species [18],species [19],species [20],SMILES,further results
23927 µM,22915 µM,22075 µM,20991 µM,20195 µM,19469 µM,18568 µM,17755 µM,16928 µM,16013 µM,15275 µM,14277 µM,9179 µM,8398 µM,7745 µM,7180 µM,6616 µM,6265 µM,5793 µM,5256 µM,C=C(OP(=O)(O)O)C(=O)O [PEP],species [21]: 4838 µM; species [22]: 4465 µM; species [23]: 3973 µM
841 µM,1872 µM,3013 µM,4002 µM,4950 µM,5935 µM,6850 µM,7775 µM,8621 µM,9455 µM,10281 µM,11083 µM,1011 µM,1602 µM,2255 µM,2820 µM,3384 µM,3735 µM,4207 µM,4544 µM,CC(=O)C(=O)O [Pyruvate],species [21]: 4962 µM; species [22]: 5335 µM; species [23]: 5727 µM
1073 µM,2085 µM,2925 µM,4009 µM,4805 µM,5531 µM,6432 µM,7245 µM,8072 µM,8987 µM,9725 µM,10723 µM,–,–,–,–,–,–,–,–,O=P(O)(O)O[C@H]1O[C@H](CO)[C@@H](O)[C@H](O)[C@H]1O [glucose-1-p],"species (Supplementary Fig 10c, time 5 min): 690 µM; species (Supplementary Fig 10c, time 11 min): 1328 µM; species (Supplementary Fig 10c, time 17 min): 1777 µM; species (Supplementary Fig 10c, time 23 min): 2409 µM; species (Supplementary Fig 10c, time 29 min): 2838 µM; species (Supplementary Fig 10c, time 35 min): 3243 µM; species (Supplementary Fig 10c, time 41 min): 3518 µM; species (Supplementary Fig 10c, time 47 min): 3730 µM; species (Supplementary Fig 10c, time 53 min): 3950 µM"
